Experimental data reported in US7041440B2, “IP3-binding polypeptides and methods of using them” (Riken, priority 1998, dated 2006).
Where “and” joins values, the source holds several entries; their conditions need not be identical. Equal entries are not always repeated. Where two headings read alike, the source gives them in different places.

How the values were obtained:
[1] = cited from earlier work
[2] = biological target: T1, IP3 receptor on cerebellar microsome (Mus musculus, UniProt P11881); assay: Inhibition of IP3-induced Ca2+ release (IICR) from cerebellar microsome, fura-2; assay type: biochemical
T1 construct: Mouse cerebellum is a tissue that is rich in IP3 receptor; from tissue; host or cells: mouse (ddY) cerebellum, microsomal fraction
Procedure: To conduct a test of inhibiting IP3-induced Ca^2+ release, a microsomal fraction was prepared from mouse cerebellum as described in Example 3. The fraction was suspended in Buffer B, dispensed, and stored at −80° C. until it was used.
Composition of Buffer B was 110 mM KCl, 10 mM NaCl, 5 mM KH2PO4, 1 mM DDT, and 50 mM HEPES-KOH (pH 7.2) (containing a cocktail of protease inhibitors [0.1 mM PMSF, 10 μM leupeptin, 10 μM pepstatin A, 10 μM E-64] and 2 mM MgCl2).
An IP3-induced Ca^2+ release activity of cerebellar microsome was determined by using fura-2 (Molecular Probe) as a fluorescent Ca^2+ indicator. Specifically, excitations upon addition of IP3 at two wavelengths (340 nm and 380 nm) were measured with fluorescence spectrophotometer CAF110 (Nihon Bunko) to see the change in the fluorescent intensity ratio (F340/F380) at 500 nm.
IP3-induced Ca^2+ release from the cerebellar microsome is generally EC50=100–200 nM IP3. Cerebellar microsome (100 μg) was mixed with 500 μl of a release buffer (Buffer B containing 1 mM MgCl2, 2 μM fura-2, 1 mM DTT, 10 mM creatine phosphate, 40 U/ml creatine kinase, 1 μg/ml oligomycin, and the cocktail of protease inhibitors) in a measurement cuvette with a stirrer bar. The following reaction was conducted at 30° C. while constantly stirring with the stirrer bar.
One mM of ATP was added to the mixture in the cuvette to activate Ca^2+ pumping (Ca^2+-ATPase), whereby Ca^2+ was incorporated into the inner space of microsome (Ca^2+ loading). Ca^2+ loading was confirmed by monitoring until the decrease of fura-2 fluorescent level became constant. The change in the fura-2 fluorescent intensity ratio was measured (F340/F380) at a subthreshold level.
The effect of IP3 sponge on inhibiting IP3-induced Ca^2+ release activity of cerebellar microsome was analyzed as follows. After the addition of ATP, the curve of fura-2 fluorescent intensity was monitored until the decrease became constant. Then, various concentrations of IP3 sponges were added. After 1 min., 50 nM to 1 μM of IP3 was added to the reaction mixture to observe the change of fura-2 fluorescent intensity induced by the IP3.
The IP3 sponge concentration dependency was determined as follows. High affinity polypeptide G224 of 3.125, 6.25, 12.5, 25, 50, 100, 200 μg/ml were added to the reaction mixture, respectively. After about 1 min., 100 nM of IP3 was added to measure the Ca^2+ release activity induced by the IP3. The concentration dependency of low affinity polypeptide G224-m30 was determined by adding G224-m30 of 200, 400 and 500 μg/ml. After about 1 min., 100 nM of IP3 was added to measure the Ca^2+ release activity induced by the IP3. In addition, G224-m30 of 500 μg/ml was also added, and after about 1 min., 50 nM of IP3 was added to measure the Ca^2+ release activity induced by the IP3.

[3] = [3H]IP3-binding activity, Scatchard plot analysis
Procedure: The IP3-binding activities of these fusion proteins were measured mainly by the method of Yoshikawa et al (1996).
Each fusion protein (IP3 sponge) (0.2 μg) was mixed with 100 μl of binding buffer-α (50 mM Tris-HCl (pH 8.0 at 4° C.), 1 mM EDTA, 1 mM β-mercaptoethanol) that contained 9.6 nM D-myo-[^3H](1,4,5)IP3 (777 GBq/mmol; DuPont NEN) (hereinafter, abbreviated as “[^3H]IP3”) and various concentrations of non-labeled D-myo-(1,4,5)IP3 (Dojindo) (hereinafter, abbreviated as “cold IP3”). The mixture was left to stand on ice for 10 minutes. To the mixture, 4 μl of 50 mg/ml γ-globulin (Sigma) (final concentration: 1 mg/ml) and 100 μl of 30% PEG 6000 (Sigma)/binding buffer-a solution (final concentration: 15%) were added. The resultant mixture was left to stand on ice for 5 minutes, and then centrifuged at 10,000×g at 2° C. for 5 minutes to collect polypeptide/PEG complex. PEG-precipitated [^3H]IP3-binding polypeptide was well solubilized with 180 μl solubilizer Solvable (DuPont NEN). The resultant was neutralized with 18 μl glacial acetic acid and then added to 5 ml liquid scintillation counter (Atomlight [DuPont NEN]) to measure the radioactivity (first radioactivity). Non-specific binding of each protein was determined by measuring the second radioactivity in the presence of 2 μM or 10 μM cold IP3. Then, a specific binding value of each protein was obtained by subtracting the second radioactivity (non-specific binding value) from the first radioactivity values.
Scatchard plot analysis was conducted under the following conditions. For low-affinity polypetides (G224-m30 and control GST), the binding experiment was conducted in 100 μl binding buffer a by adding 9.6 nM [^3H]IP3 (DuPont NEN) and 10–20 nM of cold IP3 to 2 μg of IP3-binding polypeptide, and by adding 9.6 nM [^3H]IP3 (DuPont NEN) and 50 nM-2 μM of cold IP3 to 0.01 μg IP3-binding polypeptide. For high-affinity IP3 sponges (G224 and G224-m49), binding experiment was conducted with 0.02 μg IP3 sponges at [^3H]-IP3 concentrations of 0.15, 0.3, 0.6, 1.2, 2.4, 4.8 and 9.6 nM without adding cold IP3.

[4] = biological target: T2, IP3 receptor of cerebellar microsome (Mus musculus, UniProt P11881); assay: Inhibition of [3H]IP3 binding of cerebellar microsome by IP3 sponges; conditions: 40 μg cerebellar microsome, 9.6 nM [3H]IP3, 100 μl (FIG. 4)
T2 construct: Mouse cerebellum is a tissue that is rich in IP3 receptor; from tissue; host or cells: mouse (ddY) cerebellum, microsomal fraction
Procedure: The inhibition effects of the IP3-binding polypeptides (IP3 sponges) on [H]IP3-binding activity of cerebellar microsome was analyzed as follows.
A microsomal fraction was prepared from the cerebella of mice ddY (Nippon SLC) mainly by following the method of Nakada et al. (Nakada S. et al., Biochem. J. 277:125–131, 1991). In 100 μl of binding buffer α, various concentrations of the IP3 sponges were added respectively to see the changes in the binding between the cerebellar microsome (40 μg) and 9.6 nM [^3H]-IP3 according to the above method (see Scatchard plot analysis).
Mouse cerebellum is a tissue that is rich in IP3 receptor and whose microsomal fraction has a [^3H]IP3-binding activity which is at least 50 times higher than those in other tissues (Maeda et al., 1990 (supra)). […] It was calculated that, there were about 0.92 pmol of IP3-binding site of cerebellum IP3 receptor and 0.96 pmol of [^3H]IP3 present in the 100 μl solution.

[5] = [3H]IP3-binding activity, Scatchard plot analysis; remark: listed apart in the source
[6] = purified protein, [3H]IP3 binding
[7] = purified IP3 receptor, Maeda et al. 1990

T1 sequence (P11881 whole entry N1264K/P2675L): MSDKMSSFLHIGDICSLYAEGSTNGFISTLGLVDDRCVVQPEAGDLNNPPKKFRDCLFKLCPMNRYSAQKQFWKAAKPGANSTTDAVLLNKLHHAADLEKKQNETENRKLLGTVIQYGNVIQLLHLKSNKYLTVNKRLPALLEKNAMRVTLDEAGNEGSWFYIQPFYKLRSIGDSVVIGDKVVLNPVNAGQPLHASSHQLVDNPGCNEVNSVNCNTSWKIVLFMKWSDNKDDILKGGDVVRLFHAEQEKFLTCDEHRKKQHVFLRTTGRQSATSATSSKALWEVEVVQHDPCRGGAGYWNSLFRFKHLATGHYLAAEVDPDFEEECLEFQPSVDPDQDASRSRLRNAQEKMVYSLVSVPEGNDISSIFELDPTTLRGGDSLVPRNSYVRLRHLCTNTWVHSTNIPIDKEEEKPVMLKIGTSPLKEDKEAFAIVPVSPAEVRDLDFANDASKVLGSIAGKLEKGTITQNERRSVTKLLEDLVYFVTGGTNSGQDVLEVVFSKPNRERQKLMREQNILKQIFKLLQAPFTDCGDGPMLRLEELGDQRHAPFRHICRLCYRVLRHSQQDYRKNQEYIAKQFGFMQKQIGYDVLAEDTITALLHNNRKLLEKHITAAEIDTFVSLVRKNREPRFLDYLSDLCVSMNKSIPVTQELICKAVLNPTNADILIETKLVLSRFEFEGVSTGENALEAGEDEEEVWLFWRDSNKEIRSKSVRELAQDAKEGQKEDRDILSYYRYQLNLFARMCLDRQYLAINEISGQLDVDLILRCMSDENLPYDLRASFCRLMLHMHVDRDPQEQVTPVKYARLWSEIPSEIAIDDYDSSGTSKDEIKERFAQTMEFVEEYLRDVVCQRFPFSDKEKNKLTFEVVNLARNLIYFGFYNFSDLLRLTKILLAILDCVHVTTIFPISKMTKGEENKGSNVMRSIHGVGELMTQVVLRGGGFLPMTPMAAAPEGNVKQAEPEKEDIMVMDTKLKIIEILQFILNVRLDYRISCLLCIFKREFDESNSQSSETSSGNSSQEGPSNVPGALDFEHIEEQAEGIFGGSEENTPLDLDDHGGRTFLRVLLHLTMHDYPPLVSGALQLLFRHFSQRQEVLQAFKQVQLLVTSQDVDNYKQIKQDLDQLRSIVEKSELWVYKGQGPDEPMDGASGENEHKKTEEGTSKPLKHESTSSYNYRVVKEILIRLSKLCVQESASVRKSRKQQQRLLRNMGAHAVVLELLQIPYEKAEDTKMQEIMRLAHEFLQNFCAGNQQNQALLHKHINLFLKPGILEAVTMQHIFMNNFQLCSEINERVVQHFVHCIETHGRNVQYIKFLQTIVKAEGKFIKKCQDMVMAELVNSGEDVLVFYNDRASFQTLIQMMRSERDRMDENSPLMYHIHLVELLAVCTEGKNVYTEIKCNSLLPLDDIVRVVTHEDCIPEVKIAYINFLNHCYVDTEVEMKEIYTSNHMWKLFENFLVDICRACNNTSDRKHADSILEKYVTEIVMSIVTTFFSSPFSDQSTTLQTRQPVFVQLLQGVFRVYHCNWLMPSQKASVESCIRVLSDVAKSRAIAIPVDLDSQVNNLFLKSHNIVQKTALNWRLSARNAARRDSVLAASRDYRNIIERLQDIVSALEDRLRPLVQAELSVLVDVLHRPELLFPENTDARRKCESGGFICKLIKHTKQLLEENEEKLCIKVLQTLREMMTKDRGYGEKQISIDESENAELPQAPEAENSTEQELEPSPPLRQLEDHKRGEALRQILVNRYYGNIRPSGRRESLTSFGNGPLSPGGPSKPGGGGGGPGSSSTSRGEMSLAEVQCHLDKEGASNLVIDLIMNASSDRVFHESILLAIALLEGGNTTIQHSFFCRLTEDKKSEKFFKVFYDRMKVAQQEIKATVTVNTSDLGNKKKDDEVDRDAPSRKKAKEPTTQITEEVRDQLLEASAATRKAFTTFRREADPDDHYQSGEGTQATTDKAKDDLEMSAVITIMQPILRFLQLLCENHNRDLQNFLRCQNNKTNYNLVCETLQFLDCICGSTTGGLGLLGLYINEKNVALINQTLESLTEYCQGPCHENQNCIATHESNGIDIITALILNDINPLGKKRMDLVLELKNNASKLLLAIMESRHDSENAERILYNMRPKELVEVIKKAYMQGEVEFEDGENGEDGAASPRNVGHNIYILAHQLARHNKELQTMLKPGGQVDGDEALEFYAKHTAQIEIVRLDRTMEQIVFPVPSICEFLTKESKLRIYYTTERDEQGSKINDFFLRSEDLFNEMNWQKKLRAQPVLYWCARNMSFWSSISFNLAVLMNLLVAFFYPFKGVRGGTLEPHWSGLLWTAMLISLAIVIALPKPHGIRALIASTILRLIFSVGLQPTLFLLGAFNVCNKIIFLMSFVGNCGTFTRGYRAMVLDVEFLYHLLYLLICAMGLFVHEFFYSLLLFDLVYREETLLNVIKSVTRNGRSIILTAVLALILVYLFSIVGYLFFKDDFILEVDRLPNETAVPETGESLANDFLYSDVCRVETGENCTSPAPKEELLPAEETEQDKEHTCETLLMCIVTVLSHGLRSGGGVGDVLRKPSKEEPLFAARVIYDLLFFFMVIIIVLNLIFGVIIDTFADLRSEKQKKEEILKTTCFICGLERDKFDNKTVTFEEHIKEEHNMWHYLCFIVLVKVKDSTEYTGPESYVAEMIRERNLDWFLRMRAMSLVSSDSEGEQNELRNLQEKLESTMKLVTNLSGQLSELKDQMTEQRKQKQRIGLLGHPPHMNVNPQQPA

## Amino acid region 224–579: 356-residue polypeptide almost corresponding to the IP3-binding core region
[1]; Yoshikawa et al. 1996
  Kd: 2.3 nM

## G224: fusion polypeptide of GST and amino acids 224–604 (M-224 to K-604) of IP3 receptor
[2]; 100 nM IP3 (FIG. 7)
  concentration required for 50% inhibition of IP3-induced Ca2+ release: about 20 μg/ml
[2]; 100 μg/ml, 100 nM IP3 (FIG. 6F)
  inhibition of IP3-induced Ca2+ release: almost completely inhibited
[3]
  binding to (1,4,5)IP3 and (2,4,5)IP3: binds well
[3]; purified GST fusion protein (FIG. 3A, 3B)
  Kd: 0.083 nM
[3]; purified protein
  Bmax: 1.6 pmol/μg purified protein
[3]; relative to T734
  affinity, times higher than that of polypeptide T734: 500 times
[4]
  IC50 of IP3-binding inhibition: about 10 μg/ml

## G224m30: G224 introduced with K508A mutation; low affinity IP3-binding polypeptide
[2]; 500 μg/ml, 50 nM IP3
  effect on inhibiting Ca2+ release versus control: Little difference
[2]; 500 μg/ml, 100 nM IP3
  inhibiting effect on Ca2+ release: no inhibiting effect
[3]; purified protein
  Bmax: 3.0 pmol/μg purified protein
[3]; [6]
  Kd: 330 nM
[3]; purified protein, [3H]IP3 binding, listed as G224-m30
  Kd: ~330 nM
[4]
  IC50 of IP3-binding inhibition: 100 µg/mL

## N4-T604: protein obtained by deleting amino acids 1–223 of T604; amino acids 224–604
[3]; relative to T604
  activity, times that of the original T604: about 3 times

## Purified IP3R: purified natural IP3 receptor, Maeda et al. 1990
[1]; [7]
  Bmax: 2.1 pmol/μg purified protein
  Kd: 83 nM

## T604: polypeptide of amino acids 1–604 (M-1 to K-604) of mouse Type-1 IP3 receptor
[3]; [6]
  Kd: 7.6 nM
[5]; 3 μg T604 soluble fraction, 9.6 nM [3H]IP3, cold IP3 competition (FIG. 2C)
  Kd: 45 ± 7.6 nM
[5]; E. coli soluble fraction
  Bmax: 690 pmol/mg protein and 690±64 pmol/mg protein
[5]; crude cell lysate / E. coli soluble fraction, 9.6 nM [3H]IP3 competed with cold IP3
  Kd: 45 nM

## T734: N-terminal 734 amino acids of mouse Type-1 IP3 receptor (mIP3R1)
[1]; E. coli soluble fraction, Yoshikawa et al. 1996
  Bmax: 46 pmol/mg protein
[1]; crude cell lysates, Yoshikawa et al. 1996
  Kd: 50 ± 2.4 nM
